The subject of data set [1] is HDF cells. The experiment in a line: MTT cytotoxicity assay, HDF. Particulars: 48 h.
Experimental: (§2) HEKa and HDF cells seeded in 96-well plates (5×10^3 cells/well) were incubated with a series of concentrations of PPCN, CuSO4, PCuSO4, CMOF or PCMOF for 48 h. Then, MTT solution was added to each well to a concentration of 0.5 mg/mL and incubated for an additional 4 h. After that, the medium was removed and 100 μL of dimethyl sulfoxide was added to dissolve crystals formed by living cells. Absorbance at 570 nm was measured using a microplate reader. Cell viability was expressed as a percentage of the absorbance to that of the control experiment without treatment.
The test system of data set [2] is HEKa cells. The experiment in a line: Apoptosis assay (Annexin V/PI flow cytometry), HEKa. Particulars: Cu 0.5 mmol/L, 24 h.
Experimental: (§3) HEKa and HDF cells seeded in 12-well plates (4×10^4 cells/well) were incubated with PPCN, CuSO4, PCuSO4, CMOF or PCMOF (Cu: 0.5 mmol/L) for 24 h. Cells were harvested, washed twice with ice-cold PBS, stained with Alexa Fluor 488 conjugated Annexin V and PI for 15 min at room temperature in dark, and then analyzed by flow cytometry.
A short description of data set [3]: ABTS free radical scavenging assay. Particulars: within 48 hrs, 37° C. In kind it is biochemical. As to the method:
The ability of PCMOF to scavenge the free radical cation, 2,2′-azino-bis(3-ethylbenzthiazoline-6-sulfonic acid) (ABTS) was assessed. […] A stock solution of 7 mM ABTS and 2.45 mM sodium persulfate in MQ water was prepared and left overnight in the dark at room temperature, after which the solution was sequentially filtered with 0.45 μm filter. […] At each time point, ABTS solution was sampled, diluted with MQ water 1:8 and the absorbance measured at 734 nm. All measurements were performed in triplicate. The antiradical activity was measured as % inhibition of free radicals by measuring the decrease in absorbance compared to PBS solutions at different time points.

Data set [4] deals with HEKa cells. The experiment in a line: MTT cytotoxicity assay, HEKa. The settings on record: 48 h.
Experimental: as §2
Data set [5] relates to HEKa cells. The experiment in a line: Scratch assay (cell migration), HEKa. In kind it is cell-based, human. Particulars: Cu 1×10^−3 mmol/L. As to the method: (§1) HEKa and HDF cells were seeded in 24-well plates (2×10^4 cells/well) and allowed to form a confluent monolayer. After starvation with FBS-free medium for 24 h, the cell monolayer was scratched in a straightline using 200 μL pipette tip to mimic an incisional wound. […] At desired time intervals, cells were photographed and cell migration rate was calculated using the formula shown as below: […]

For data set [6], the system named is HDF cells. The experiment in a line: Apoptosis assay (Annexin V/PI flow cytometry), HDF. The settings on record: Cu 0.5 mmol/L, 24 h.
Experimental: as §3
Data set [7] deals with HDF cells. The experiment in a line: Scratch assay (cell migration), HDF. The data set is classed as cell-based, human. Particulars: 54 hrs, Cu 1×10^−3 mmol/L. As to the method:
as §1

Data set [8] has as its system HDF cells.
Experimental: as §2
Data set [9] concerns HEKa cells.
Experimental: as §2

Where two headings read alike, the source gives them in different places.

In the case of `O=S(=O)([O-])[O-].[Cu+2]` [CuSO4, Copper sulfate], the “cytotoxicity (MTT)” value in data set [1] and in data set [4] was “increased with increasing concentrations” throughout. The cell apoptosis in [2] is given as 78.79%; in data set [6] it was 97.84%. Further, the ABTS radicals scavenged entry in data set [3] is given as “didn't present a free radical scavenging effect”. In addition, in data set [5] (8 h), the “effect on wound closure versus blank” value is “significant increase”. Besides, the wound closure rate in data set [5] (30 hrs) was found to be 56.73%; in data set [7] it was 34.15%.
Take “poly(polyethyleneglycol citrate-co-N-isopropylacrylamide) [PPCN]”: the “cytotoxicity (MTT)” value in data set [8] and in data set [9] was “not toxic” in each case.

Values taken from US10561761B2, “Polymer metal-organic framework composites” (Northwestern University, priority 2014, dated 2020).
